In patent US6703205B2, “Apparatus and methods for correcting for variable velocity in microfluidic systems” (Caliper Technologies Corp., priority 1997, dated 2004):

Experiments:
HCV protease = HCV protease (Hepatitis C virus genotype 1a, UniProt P27958); assay: On-chip continuous flow HCV protease assay with FRET depsipeptide substrate; format: biochemical; settings: 25 mM TRIS/HCL, pH 8.5, 0.1% Triton X-100, 10 mM DTT, 1M NDSB-195
Description: HCV protease was used in a similar fluorogenic assay to LAR phosphatase; however, the peptide substrate incorporates a fluorescence resonance energy transfer (FRET) label (FIG. 18). […] The product fluorescence is proportional to the amount of cleaved substrate. The height of the product signal is proportional to the rate of enzyme turnover for that substrate concentration. The rate of fluorescence generation can be assessed as the fluorescence signal per mixing time of substrate and enzyme in the reaction channel. That mixing time is determined by the mean residence time of the fluorescent product in the reaction channel as it is electrokinetically pumped from the source of the mixing to the detector. Km was determined from the Michaelis Menton equation.
Due to the chemistry of this FRET quenching reaction, several considerations for accurate measurement of Km on the Labchip™ exist. […]
The chip was operational in that fluid was flowing for more than 12 hours of continuous electrokinetic pumping; however, the inhibition response was reproducible for seven hours. The total reagent volume consumed in the experiment can be calculated from the cross sectional area of the capillary and the total current. […] The average percent inhibition response was calculated for the first three inhibited and uninhibited signals at the start of each hour. […]

LAR = LAR (Homo sapiens, UniProt P10586); assay: Cuvette / spectrophotometer LAR phosphatase assay with dFMUP; format: biochemical; settings: same running buffer
LAR, sequence (P10586 30-1907, species assumed): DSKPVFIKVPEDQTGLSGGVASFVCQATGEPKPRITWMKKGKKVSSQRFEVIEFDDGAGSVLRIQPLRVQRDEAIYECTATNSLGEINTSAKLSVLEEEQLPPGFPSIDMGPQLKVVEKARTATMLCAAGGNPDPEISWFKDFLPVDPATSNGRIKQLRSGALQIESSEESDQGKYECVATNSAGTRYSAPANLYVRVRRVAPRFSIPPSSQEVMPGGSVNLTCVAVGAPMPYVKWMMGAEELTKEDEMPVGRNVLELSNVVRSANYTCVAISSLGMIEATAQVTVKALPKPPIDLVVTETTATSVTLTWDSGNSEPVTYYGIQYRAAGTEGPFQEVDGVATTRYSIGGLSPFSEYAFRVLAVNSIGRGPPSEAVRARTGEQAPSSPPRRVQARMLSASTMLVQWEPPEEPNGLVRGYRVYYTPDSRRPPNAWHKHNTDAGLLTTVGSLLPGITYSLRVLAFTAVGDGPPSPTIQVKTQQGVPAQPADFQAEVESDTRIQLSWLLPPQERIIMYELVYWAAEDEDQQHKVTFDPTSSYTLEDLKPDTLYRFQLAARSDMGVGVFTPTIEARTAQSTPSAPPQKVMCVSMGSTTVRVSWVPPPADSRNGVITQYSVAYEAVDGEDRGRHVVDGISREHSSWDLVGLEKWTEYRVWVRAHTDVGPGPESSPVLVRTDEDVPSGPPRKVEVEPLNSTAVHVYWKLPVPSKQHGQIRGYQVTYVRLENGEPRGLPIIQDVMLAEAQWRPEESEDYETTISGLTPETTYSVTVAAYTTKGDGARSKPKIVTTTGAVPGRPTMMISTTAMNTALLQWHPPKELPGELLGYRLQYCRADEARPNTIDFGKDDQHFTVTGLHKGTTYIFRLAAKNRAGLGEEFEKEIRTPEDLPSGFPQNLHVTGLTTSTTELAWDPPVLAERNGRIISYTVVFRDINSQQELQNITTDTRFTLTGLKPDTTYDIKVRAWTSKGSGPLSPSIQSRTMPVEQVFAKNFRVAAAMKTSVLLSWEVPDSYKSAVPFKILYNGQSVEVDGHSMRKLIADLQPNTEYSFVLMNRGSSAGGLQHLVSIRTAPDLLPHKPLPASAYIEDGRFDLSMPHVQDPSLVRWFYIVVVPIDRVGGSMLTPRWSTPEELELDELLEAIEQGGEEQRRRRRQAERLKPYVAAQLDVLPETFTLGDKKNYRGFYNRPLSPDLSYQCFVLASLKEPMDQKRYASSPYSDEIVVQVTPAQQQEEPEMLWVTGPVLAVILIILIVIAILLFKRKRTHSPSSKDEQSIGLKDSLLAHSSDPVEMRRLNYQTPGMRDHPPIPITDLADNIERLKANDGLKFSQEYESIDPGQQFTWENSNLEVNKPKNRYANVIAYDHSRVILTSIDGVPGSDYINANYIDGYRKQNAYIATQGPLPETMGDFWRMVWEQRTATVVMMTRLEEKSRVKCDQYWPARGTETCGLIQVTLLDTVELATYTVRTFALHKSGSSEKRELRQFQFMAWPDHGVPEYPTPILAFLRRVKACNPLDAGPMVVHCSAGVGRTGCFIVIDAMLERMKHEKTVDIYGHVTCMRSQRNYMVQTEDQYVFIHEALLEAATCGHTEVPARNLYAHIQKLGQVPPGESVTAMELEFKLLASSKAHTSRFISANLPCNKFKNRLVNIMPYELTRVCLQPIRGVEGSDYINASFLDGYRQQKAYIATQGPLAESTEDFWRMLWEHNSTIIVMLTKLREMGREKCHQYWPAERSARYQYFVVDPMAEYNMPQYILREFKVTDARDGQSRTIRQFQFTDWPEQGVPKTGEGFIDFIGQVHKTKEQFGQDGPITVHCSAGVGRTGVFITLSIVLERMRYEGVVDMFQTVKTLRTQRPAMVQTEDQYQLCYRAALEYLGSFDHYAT
Method: A least squares fit of the three straight lines: no inhibitor, 35 μM and 69 μM peptide, was performed with the constraint that they meet at a common intercept on the y axis, 1/Vmax FIG. 15. […] The kcat is 4.74 μmol/min nmol LAR. The parallel analysis performed on the spectrophotometer in the same running buffer yielded a kcat of 6 μmol/min nmol LAR. […] The same analysis performed in a cuvette experiment with 1 mg/ml BSA in the running buffer gave 167 μM peptide.
In addition to the above kinetic studies, rate as a function of substrate concentration data was collected on three separate chips in order to consider interchip reproducibility for Km analyses. The combined data were used to prepare a double reciprocal plot. […] This is in excellent agreement with cuvette experiments performed on the spectrophotometer where dFMU was detected at 360 nm in a temperature controlled cuvette at 25_C.

HCV protease, sequence (P27958 1027-1208): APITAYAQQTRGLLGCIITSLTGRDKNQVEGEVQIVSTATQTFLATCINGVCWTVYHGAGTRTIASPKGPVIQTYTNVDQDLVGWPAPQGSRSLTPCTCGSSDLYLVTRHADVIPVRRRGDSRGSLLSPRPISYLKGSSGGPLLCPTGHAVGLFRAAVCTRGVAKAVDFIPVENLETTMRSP

kcat (LAR)	Compound	Vmax (HCV protease)	kcat (HCV protease)
	C/C=C1\NC(=O)[C@H]2CSSCC/C=C/[C@H](CC(=O)N[C@H](C(C)C)C(=O)N2)OC(=O)[C@H](C(C)C)NC1=O [Depsipeptide]	0.086 mM/s	0.03 s⁻¹
6 μmol/min nmolLAR	Cc1cc(=O)oc2c(F)c(OP(=O)(O)O)c(F)cc12 [dFMUP]		
